From patent US8658683B2, “Combination of alpha-2 receptor agonist (clonidin) and anti-muscarinic agent (oxybutynin) for the treatment of sialorrhoea” (Orient Pharma (Samoa) Co., Ltd, priority 2006, dated 2014)

What was measured:
[1] = test system: patients with Parkinson's disease; settings: ophthalmic solution given sublingually, cited from earlier work
[2] = test system: Parkinson's patients; settings: 0.15 mg per os, 17 Parkinson's patients; cited from earlier work
[3] = test system: healthy male volunteers; assay: Saxon test of saliva production, open-label rising dose study; assay type: in vivo, human; settings: for saliva production over time: drug administered alone, pre-dose to 6 h post-dose; for effect of dose on saliva production: drug alone, rising dose levels
Experimental: The study examined the effects of clonidine and oxybutynin on saliva production in 9 healthy male volunteers. This was an open-label, non-randomised, two-period, rising dose study.
The subjects were assessed on each dosing occasion for saliva production pre-dose and 1 h, 2.5 h, 4 h and 6 h post-dose. Vital signs were recorded at specified times during each study period and adverse events were reported throughout.
Using this information, a mixed effects regression analysis of the % reduction in saliva versus dose with subject as a random effect was performed for both clonidine and oxybutynin. From this model, an approximate ED30 and an ED50 were calculated.
The key observation in this study is based on the Saxon test. See Kohler & Winter, Arthritis Rheum.

[4] = test system: sialorrhoea induced by clozapine; settings: in vivo; cited from earlier work
[5] = test system: patients; settings: tablets; cited from earlier work
[6] = test system: patients receiving clozapine with excessive drooling; settings: nasal spray 0.03-0.06% sublingually, 8 patients, after several weeks of use; cited from earlier work

CN1[C@@H]2CC[C@H]1C[C@@H](OC(=O)C(CO)c1ccccc1)C2 (stereo partly shown) [atropine]
patients who suffered hallucinations ([1]; 7 patients): 2 of the 7 | saliva production ([1]; small case study): significant decline in saliva production

Clc1cccc(Cl)c1N=C1NCCN1 [clonidine]
patients who experienced side-effects [2]: Four of the 17 | reduction of sialorrhoea [2]: significantly reduce sialorrhoea | AUCT of saliva production compared to placebo ([3]; 50 mcg clonidine): reduction in AUCTs | AUCT of saliva production compared to placebo ([3]; 100 mcg clonidine): reduction in AUCTs | saliva production over time [3]: trend towards a reduction in saliva production over time | effect of dose on saliva production [3]: significant with increasing dose levels | reduction of sialorrhoea induced by clozapine [4]: effective in reducing sialorrhoea

C[N+]1(C)CCC(OC(=O)C(O)(c2ccccc2)C2CCCC2)C1 (stereo not shown) [glycopyrrolate]
patients by whom the drug is not well tolerated [5]: 20-25 % of patients

CC(C)[N+]1(C)[C@@H]2CC[C@H]1C[C@@H](OC(=O)C(CO)c1ccccc1)C2 (stereo partly shown) [ipratropium]
non-responder patients [6]: 1 patient | patients with full response [6]: 2 patients | patients with partial response (symptoms controlled for 2-8 hours) [6]: 5 patients

CCN(CC)CC#CCOC(=O)C(O)(c1ccccc1)C1CCCCC1 (stereo not shown) [oxybutynin]
AUCT of saliva production compared to placebo ([3]; 10 mg oxybutynin): AUCT was reduced | saliva production over time [3]: trend towards a reduction in saliva production over time | effect of dose on saliva production [3]: no significant effects of dose on saliva production
